Measured values: patent US20120277209A1, “PYRAZINE COMPOUNDS AS PHOSPHODIESTERASE 10 INHIBITORS” (Amgen Inc., priority 2009, published 2012)

target: PDE10 (UniProt Q9Y233); test: PDE10 enzyme inhibition, IMAP TR-FRET assay (MPDE10A7 Enzyme Activity and Inhibition); format: biochemical; conditions: IC50 class against PDE10; read-out: IC50
Method in brief: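 PDE10A enzyme or tissue homogenate preincubated with compounds 30 min at room temperature, then fluorescein-labelled cAMP or cGMP added for 60 min. IMAP binding reagent stop, TR-FRET read. Values are mean IC50s, grouped into five potency classes.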

| IC50 [nM] | SMILES |
| --- | --- |
| < 25 | CC(C)(C)OC(=O)N1CC=C(c2nccnc2Oc2ccc(Nc3nc4ccccc4s3)c(F)c2)CC1 [Example 159, tert-butyl 4-(3-(4-(benzo[d]thiazol-2-ylamino)-3-fluorophenoxy)pyrazin-2-yl)-5,6-dihydropyridine-1(2H)-carboxylate] |
| 1000 to 5000 | COc1nccnc1Oc1ccc(C(=O)c2nc3ccccc3[nH]2)cc1 [Example 160, (1H-benzo[d]imidazol-2-yl)(4-(3-methoxypyrazin-2-yloxy)phenyl)methanone] |
| 1000 to 5000 | CC(C)Oc1nccnc1Oc1ccc(C(=O)c2nc3ccccc3[nH]2)cc1 [Example 161, (1H-benzo[d]imidazol-2-yl)(4-(3-isopropoxypyrazin-2-yloxy)phenyl)methanone] |
| 250 to 1000 | O=C(c1ccc(Oc2nccnc2OCC2CC2)cc1)c1nc2ccccc2[nH]1 [Example 163, (1H-benzo[d]imidazol-2-yl)(4-(3-(cyclopropylmethoxy)pyrazin-2-yloxy)phenyl)methanone] |
| 250 to 1000 | O=C(c1ccc(Oc2nccnc2OCC(F)(F)F)cc1)c1nc2ccccc2[nH]1 [Example 164] |
| 250 to 1000 | COCCOc1nccnc1Oc1ccc(C(=O)c2nc3ccccc3[nH]2)cc1 [Example 165, (1H-benzo[d]imidazol-2-yl)(4-(3-(2-methoxyethoxy)pyrazin-2-yloxy)phenyl)methanone] |
| 25 to 100 | O=C(c1ccc(Oc2nccnc2OCc2ccccn2)cc1)c1nc2ccccc2[nH]1 [Example 166, (1H-benzo[d]imidazol-2-yl)(4-(3-(pyridin-2-ylmethoxy)pyrazin-2-yloxy)phenyl)methanone] |
| 100 to 250 | O=C(c1ccc(Oc2nccnc2Oc2ccccc2)cc1)c1nc2ccccc2[nH]1 [Example 167, (1H-benzo[d]imidazol-2-yl)(4-(3-phenoxypyrazin-2-yloxy)phenyl)methanone] |
| 100 to 250 | O=C(c1ccc(Oc2nccnc2Oc2cccnc2)cc1)c1nc2ccccc2[nH]1 [Example 168, (1H-benzo[d]imidazol-2-yl)(4-(3-(pyridin-3-yloxy)pyrazin-2-yloxy)phenyl)methanone] |
| 100 to 250 | CC#CCOc1nccnc1Oc1ccc(C(=O)c2nc3ccccc3[nH]2)cc1 [Example 169, (1H-benzo[d]imidazol-2-yl)(4-(3-(but-2-ynyloxy)pyrazin-2-yloxy)phenyl)methanone] |
| 100 to 250 | Cc1ncsc1CCOc1nccnc1Oc1ccc(C(=O)c2nc3ccccc3[nH]2)cc1 [Example 170, (1H-benzo[d]imidazol-2-yl)(4-(3-(2-(4-methylthiazol-5-yl)ethoxy)pyrazin-2-yloxy)phenyl)methanone] |
| 100 to 250 | O=C(c1ccc(Oc2nccnc2OCC2CCOC2)cc1)c1nc2ccccc2[nH]1 (stereo not shown) [Example 171, (1H-benzo[d]imidazol-2-yl)(4-(3-((tetrahydrofuran-3-yl)methoxy)pyrazin-2-yloxy)phenyl)methanone] |
| 100 to 250 | O=C(c1ccc(Oc2nccnc2OCCN2CCOCC2)cc1)c1nc2ccccc2[nH]1 [Example 172, (1H-benzo[d]imidazol-2-yl)(4-(3-(2-morpholinoethoxy)pyrazin-2-yloxy)phenyl)methanone] |
| 100 to 250 | O=C(c1ccc(Oc2nccnc2OCCN2CCCC2)cc1)c1nc2ccccc2[nH]1 [Example 173, (1H-benzo[d]imidazol-2-yl)(4-(3-(2-(pyrrolidin-1-yl)ethoxy)pyrazin-2-yloxy)phenyl)methanone] |
| 100 to 250 | CN(C)CCOc1nccnc1Oc1ccc(C(=O)c2nc3ccccc3[nH]2)cc1 [Example 174, (1H-benzo[d]imidazol-2-yl)(4-(3-(2-(dimethylamino)ethoxy)pyrazin-2-yloxy)phenyl)methanone] |
| 100 to 250 | CN1CCCC1CCOc1nccnc1Oc1ccc(C(=O)c2nc3ccccc3[nH]2)cc1 (stereo not shown) [Example 175] |
| 100 to 250 | O=C(c1ccc(Oc2nccnc2OCc2ccncc2)cc1)c1nc2ccccc2[nH]1 [Example 176, (1H-benzo[d]imidazol-2-yl)(4-(3-(pyridin-4-ylmethoxy)pyrazin-2-yloxy)phenyl)methanone] |
| 25 to 100 | O=C(c1ccc(Oc2nccnc2OCCc2ccccn2)cc1)c1nc2ccccc2[nH]1 [Example 177, (1H-benzo[d]imidazol-2-yl)(4-(3-(2-(pyridin-2-yl)ethoxy)pyrazin-2-yloxy)phenyl)methanone] |
| 25 to 100 | O=C(c1ccc(Oc2nccnc2OCCCc2cccnc2)cc1)c1nc2ccccc2[nH]1 [Example 178, (1H-benzo[d]imidazol-2-yl)(4-(3-(3-(pyridin-3-yl)propoxy)pyrazin-2-yloxy)phenyl)methanone] |
| 100 to 250 | O=C(c1ccc(Oc2nccnc2OCc2cccnc2)cc1)c1nc2ccccc2[nH]1 [Example 179, (1H-benzo[d]imidazol-2-yl)(4-(3-(pyridin-3-ylmethoxy)pyrazin-2-yloxy)phenyl)methanone] |

| IC50 [nM] | SMILES |
| --- | --- |
| 1000 to 5000 | CCCOc1nccnc1Oc1ccc(C(=O)c2nc3ccccc3[nH]2)cc1 [Example 180, (1H-benzo[d]imidazol-2-yl)(4-(3-propoxypyrazin-2-yloxy)phenyl)methanone] |
| < 25 | O=C(c1ccc(Oc2nccnc2C2CCOCC2)cc1)c1nc2ccccc2[nH]1 [Example 181, (1H-benzo[d]imidazol-2-yl)(4-(3-(tetrahydro-2H-pyran-4-yl)pyrazin-2-yloxy)phenyl)methanone] |
| < 25 | O=C(c1ccc(Oc2nccnc2C2CCOCC2)cc1)c1nc2ncccc2[nH]1 [Example 182, (1H-imidazo[4,5-b]pyridin-2-yl)(4-(3-(tetrahydro-2H-pyran-4-yl)pyrazin-2-yloxy)phenyl)methanone] |
| < 25 | O=C(c1ccc(Oc2nccnc2C2CCOCC2)cc1)c1nc2ccc(F)cc2[nH]1 [Example 183, (6-fluoro-1H-benzo[d]imidazol-2-yl)(4-(3-(tetrahydro-2H-pyran-4-yl)pyrazin-2-yloxy)phenyl)methanone] |
| < 25 | Cn1c(C(=O)c2ccc(Oc3nccnc3C3CCOCC3)cc2)nc2ccccc21 [Example 184, (1-methyl-1H-benzo[d]imidazol-2-yl)(4-(3-(tetrahydro-2H-pyran-4-yl)pyrazin-2-yloxy)phenyl)methanone] |
| < 25 | O=C(c1ccc(Oc2nccnc2C2CCCOC2)cc1)c1nc2ccccc2[nH]1 (stereo not shown) [Example 186, 1H-benzimidazol-2-yl(4-((3-(tetrahydro-2H-pyran-3-yl)-2-pyrazinyl)oxy)phenyl)methanone] |
| < 25 | COC1CC=C(c2nccnc2Oc2ccc(C(=O)c3nc4ccccc4[nH]3)cc2)CC1 (stereo not shown) [Example 187, 1H-Benzimidazol-2-yl(4-((3-(4-methoxy-1-cyclohexen-1-yl)-2-pyrazinyl)oxy)phenyl)methanone] |
| < 25 | c1ccc2sc(Nc3ccc(Oc4nccnc4C4CCCOC4)cc3)nc2c1 (stereo not shown) [Example 193, N-(4-(3-(tetrahydro-2H-pyran-3-yl)pyrazin-2-yloxy)phenyl)benzo[d]thiazol-2-amine] |
| < 25 | O=C1CCC(c2nccnc2Oc2ccc(C(=O)c3nc4ccccc4[nH]3)cc2)CC1 [Example 195, 4-(2-(4-(1H-BENZO[D]IMIDAZOLE-2-CARBONYL)PHENOXY)PYRAZIN-3-YL)CYCLOHEXANONE] |
| < 25 | C[C@]1(O)CC[C@@H](c2nccnc2Oc2ccc(C(=O)c3nc4ccccc4[nH]3)cc2)CC1 [Example 196, (1H-benzo[d]imidazol-2-yl)(4-(3-((1S,4S)-4-hydroxy-4-methylcyclohexyl)pyrazin-2-yloxy)phenyl)methanone] |
| < 25 | C[C@]1(O)CC[C@H](c2nccnc2Oc2ccc(C(=O)c3nc4ccccc4[nH]3)cc2)CC1 [Example 197, (1H-benzo[d]imidazol-2-yl)(4-(3-((1R,4R)-4-hydroxy-4-methylcyclohexyl)pyrazin-2-yloxy)phenyl)methanone] |
| < 25 | O=C(c1ccc(Oc2nccnc2C2CCCOCC2)cc1)c1nc2ccccc2[nH]1 (stereo not shown) [Example 198, (1H-benzo[d]imidazol-2-yl)(4-(3-(oxepan-4-yl)pyrazin-2-yloxy)phenyl)methanone] |
| < 25 | O=C(c1ccc(Oc2nccnc2C2=CCC(F)(F)CC2)cc1)c1nc2ccccc2[nH]1 [Example 199, (1H-benzo[d]imidazol-2-yl)(4-(3-(4,4-difluorocyclohex-1-enyl)pyrazin-2-yloxy)phenyl)methanone] |
| < 25 | N#CC1(c2nccnc2Oc2ccc(Nc3nc4ccccc4s3)cc2)CCOCC1 [Example 200, 4-(3-(4-(BENZO[D]THIAZOL-2-YLAMINO)PHENOXY)PYRAZIN-2-YL)TETRAHYDRO-2H-PYRAN-4-CARBONITRILE] |
| < 25 | CN(c1ccc(Oc2nccnc2C2CCOCC2)cc1)c1nc2ccccc2s1 [Example 201, N-METHYL-N-(4-(3-(TETRAHYDRO-2H-PYRAN-4-YL)PYRAZIN-2-YLOXY)PHENYL)BENZO[D]THIAZOL-2-AMINE] |
| < 25 | OC1(c2nccnc2Oc2ccc(Nc3nc4ccccc4s3)cc2)CCOCC1 [Example 202, 4-(3-(4-(BENZO[D]THIAZOL-2-YLAMINO)PHENOXY)PYRAZIN-2-YL)TETRAHYDRO-2H-PYRAN-4-OL] |
| < 25 | O=C(c1ccc(Oc2nccnc2C2(F)CCOCC2)cc1)c1nc2ccccc2[nH]1 [Example 203, (1H-BENZO[D]IMIDAZOL-2-YL)(4-(3-(4-FLUOROTETRAHYDRO-2H-PYRAN-4-YL)PYRAZIN-2-YLOXY)PHENYL)METHANONE] |
| < 25 | FC1(c2nccnc2Oc2ccc(Nc3nc4ccccc4s3)cc2)CCOCC1 [Example 204, N-(4-(3-(4-FLUOROTETRAHYDRO-2H-PYRAN-4-YL)PYRAZIN-2-YLOXY)PHENYL)BENZO[D]THIAZOL-2-AMINE] |
| < 25 | COC(=O)C1(c2nccnc2Oc2ccc(Nc3nc4ccccc4s3)cc2)CCN(C(=O)OC(C)(C)C)CC1 [Example 205, 1-tert-butyl 4-methyl 4-(3-(4-(benzo[d]thiazol-2-ylamino)phenoxy)pyrazin-2-yl)piperidine-1,4-dicarboxylate] |

| SMILES | IC50 [nM] |
| --- | --- |
| CC(C)COc1nccnc1Oc1ccc(C(=O)c2nc3ccccc3[nH]2)cc1 [Example 162, (1H-benzo[d]imidazol-2-yl)(4-(3-isobutoxypyrazin-2-yloxy)phenyl)methanone] | 1000 to 5000 |
